Source: ChEMBL document CHEMBL4043123, “α-Geminal disubstituted pyrrolidine iminosugars and their C-4-fluoro analogues: Synthesis, glycosidase inhibition and molecular docking studies” (Bioorg Med Chem, 2017)
Calls of active or inactive are those of the source. The calls are words filed in the database; no cut-off is given here.

Assays:
Oryza sativa = assay: Inhibition of rice alpha-glucosidase at 1 mM pre-incubated for 1 hr followed by p-nitrophenyl-alpha-D-glucopyranoside substrate addition by fluorescence detection based assay
[1] = Inhibition of yeast alpha-glucosidase pre-incubated for 1 hr followed by p-nitrophenyl-alpha-D-glucopyranoside substrate addition by fluorescence detection based assay; parameters: species or system Saccharomyces cerevisiae
Prunus dulcis = assay: Inhibition of almond beta-glucosidase at 1 mM pre-incubated for 1 hr followed by p-nitrophenyl-beta-D-glucopyranoside, substrate addition by fluorescence detection based assay
[2] = biological target: Alpha-galactosidase (Coffea arabica) (UniProt Q42656); assay: Inhibition of coffee beans alpha-galactosidase at 1 mM pre-incubated for 1 hr followed by p-nitrophenyl-alpha-D-galactopyranoside substrate addition by fluorescence detection based assay
Escherichia coli = assay: Inhibition of Escherichia coli beta-galactosidase at 1 mM pre-incubated for 1 hr followed by p-nitrophenyl-beta-D-galactopyranoside substrate addition by fluorescence detection based assay
[3] = biological target: T1, Alpha-mannosidase (Canavalia ensiformis) (UniProt C0HJB3); assay: Inhibition of jack beans alpha-mannosidase […] at 1 mM pre-incubated for 1 hr followed by […] substrate addition by fluorescence detection based assay
T1 sequence (whole entry): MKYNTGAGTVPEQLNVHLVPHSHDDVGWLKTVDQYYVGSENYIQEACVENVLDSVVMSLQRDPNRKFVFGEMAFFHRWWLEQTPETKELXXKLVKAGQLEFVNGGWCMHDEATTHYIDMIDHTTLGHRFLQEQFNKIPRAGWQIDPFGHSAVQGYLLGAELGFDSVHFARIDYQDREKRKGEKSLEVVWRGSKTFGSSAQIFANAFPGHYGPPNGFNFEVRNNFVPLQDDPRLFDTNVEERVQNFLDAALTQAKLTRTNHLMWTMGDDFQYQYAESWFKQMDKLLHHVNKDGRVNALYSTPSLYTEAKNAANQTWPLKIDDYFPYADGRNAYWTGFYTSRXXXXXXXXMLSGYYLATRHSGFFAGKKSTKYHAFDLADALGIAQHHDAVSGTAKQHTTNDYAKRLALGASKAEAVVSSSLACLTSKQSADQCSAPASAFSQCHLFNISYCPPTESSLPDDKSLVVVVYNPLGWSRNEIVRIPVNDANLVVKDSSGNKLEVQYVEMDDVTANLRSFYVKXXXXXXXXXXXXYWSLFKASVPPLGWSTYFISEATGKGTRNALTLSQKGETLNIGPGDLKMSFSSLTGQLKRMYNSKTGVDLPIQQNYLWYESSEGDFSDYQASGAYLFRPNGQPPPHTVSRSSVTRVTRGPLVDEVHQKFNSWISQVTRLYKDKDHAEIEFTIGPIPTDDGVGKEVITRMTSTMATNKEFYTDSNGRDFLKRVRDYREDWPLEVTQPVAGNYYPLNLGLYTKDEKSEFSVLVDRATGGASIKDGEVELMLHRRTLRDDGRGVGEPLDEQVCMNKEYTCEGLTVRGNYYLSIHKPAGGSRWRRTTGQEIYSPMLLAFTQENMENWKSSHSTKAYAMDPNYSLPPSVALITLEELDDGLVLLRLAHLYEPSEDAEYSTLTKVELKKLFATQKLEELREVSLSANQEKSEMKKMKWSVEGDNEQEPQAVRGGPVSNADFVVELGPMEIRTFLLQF

Saccharomyces cerevisiae = assay: Inhibition of yeast alpha-glucosidase at 1 mM pre-incubated for 1 hr followed by p-nitrophenyl-alpha-D-glucopyranoside substrate addition by fluorescence detection based assay
[4] = Inhibition of almond beta-glucosidase pre-incubated for 1 hr followed by p-nitrophenyl-beta-D-glucopyranoside, substrate addition by fluorescence detection based assay; parameters: species or system Prunus dulcis
Alpha-galactosidase [5] = biological target: T2, Alpha-galactosidase (Coffea arabica, UniProt Q42656); assay: Competitive inhibition of coffee beans alpha-galactosidase pre-incubated for 1 hr followed by p-nitrophenyl-alpha-D-galactopyranoside substrate addition by fluorescence detection based assay
[6] = Inhibition of rice alpha-glucosidase pre-incubated for 1 hr followed by p-nitrophenyl-alpha-D-glucopyranoside substrate addition by fluorescence detection based assay; parameters: species or system Oryza sativa
[7] = Competitive inhibition of almond beta-glucosidase pre-incubated for 1 hr followed by p-nitrophenyl-beta-D-glucopyranoside, substrate addition by fluorescence detection based assay; parameters: species or system Prunus dulcis
[8] = Competitive inhibition of Escherichia coli beta-galactosidase pre-incubated for 1 hr followed by p-nitrophenyl-beta-D-galactopyranoside substrate addition by fluorescence detection based assay
Alpha-galactosidase [9] = biological target: T2, Alpha-galactosidase; assay: Inhibition of coffee beans alpha-galactosidase pre-incubated for 1 hr followed by p-nitrophenyl-alpha-D-galactopyranoside substrate addition by fluorescence detection based assay

T2 sequence (Q42656 whole entry): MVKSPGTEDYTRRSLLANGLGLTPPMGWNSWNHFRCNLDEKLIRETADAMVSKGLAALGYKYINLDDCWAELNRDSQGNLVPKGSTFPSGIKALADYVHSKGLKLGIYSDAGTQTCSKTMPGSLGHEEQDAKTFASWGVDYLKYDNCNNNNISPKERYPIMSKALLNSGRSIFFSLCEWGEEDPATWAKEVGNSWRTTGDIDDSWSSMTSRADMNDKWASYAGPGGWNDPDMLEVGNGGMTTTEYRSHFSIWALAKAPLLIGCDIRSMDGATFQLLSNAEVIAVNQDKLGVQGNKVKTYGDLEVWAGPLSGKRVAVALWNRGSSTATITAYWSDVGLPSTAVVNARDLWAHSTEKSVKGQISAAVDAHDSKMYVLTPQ
Sequence of Alpha-galactosidase (Coffea arabica) (Q42656 16-378 limits assumed): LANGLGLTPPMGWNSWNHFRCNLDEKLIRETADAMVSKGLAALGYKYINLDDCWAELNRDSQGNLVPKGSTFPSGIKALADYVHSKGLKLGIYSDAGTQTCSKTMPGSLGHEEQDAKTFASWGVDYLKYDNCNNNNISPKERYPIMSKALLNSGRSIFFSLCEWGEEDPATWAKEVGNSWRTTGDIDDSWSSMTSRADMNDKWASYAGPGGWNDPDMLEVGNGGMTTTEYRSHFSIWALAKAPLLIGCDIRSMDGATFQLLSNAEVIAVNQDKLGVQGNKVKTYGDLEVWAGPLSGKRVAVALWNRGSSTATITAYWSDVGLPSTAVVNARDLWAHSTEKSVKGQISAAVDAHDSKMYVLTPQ

SMILES	inhibition (Oryza sativa)	IC50 [1] [µM]	Ki [1] [µM]	inhibition (Prunus dulcis)	inhibition [2]	inhibition (Escherichia coli)	inhibition [3]	inhibition (Saccharomyces cerevisiae)	IC50 [4] [µM]	Ki [4] [µM]	IC50 (Alpha-galactosidase [5]) [µM]	Ki (Alpha-galactosidase [5]) [µM]	IC50 [6] [µM]	Ki [6] [µM]	IC50 [7] [µM]	Ki [7] [µM]	IC50 [8] [µM]	IC50 (Alpha-galactosidase [9]) [µM]	Ki (Alpha-galactosidase [9]) [µM]	Ki [8] [µM]
O=C(O)[C@]1(CO)NC[C@@H](O)[C@H]1O	inactive	763	619	inactive	inactive	inactive	inactive													
O=C(O)[C@@]1(CO)NC[C@@H](O)[C@H]1O	inactive					inactive	inactive	inactive	445	349	0.079	0.062								
OCC1(CO)NC[C@@H](O)[C@H]1O	inactive			inactive		inactive	inactive	inactive			0.016	0.008								

Further lines, with some results ahead:

inhibition (Oryza sativa)	IC50 [1] [µM]	Ki [1] [µM]	inhibition (Prunus dulcis)	inhibition [2]	inhibition (Escherichia coli)	inhibition [3]	inhibition (Saccharomyces cerevisiae)	IC50 [4] [µM]	Ki [4] [µM]	IC50 (Alpha-galactosidase [5]) [µM]	Ki (Alpha-galactosidase [5]) [µM]	IC50 [6] [µM]	Ki [6] [µM]	IC50 [7] [µM]	Ki [7] [µM]	IC50 [8] [µM]	IC50 (Alpha-galactosidase [9]) [µM]	Ki (Alpha-galactosidase [9]) [µM]	SMILES	Ki [8] [µM]
				inactive	inactive	inactive	inactive					463	376	0.184	0.144				OCC1(CO)NC[C@H](F)[C@H]1O	
			inactive	inactive	inactive	inactive	inactive					0.05	0.028						OCCN1C[C@H](O)[C@@H](O)[C@H](O)[C@H]1CO [MIGLITOL]	
inactive			inactive	inactive		inactive	inactive									0.065			O=C(O)[C@]1(CO)NC[C@H](F)[C@H]1O	0.051
inactive			inactive		inactive	inactive	inactive										392	364	O=C(O)[C@@]1(CO)NC[C@H](F)[C@H]1O	
